Results from ChEMBL document CHEMBL5584309, “Discovery of Novel Mcl-1 Inhibitors with a 3-Substituted-1H-indole-1-yl Moiety Binding to the P1-P3 Pockets to Induce Apoptosis in Acute Myeloid Leukemia Cells” (J Med Chem, 2024).
Activity calls are given as the source filed them. The rule behind the calls is not given here.

Legend:
THP-1 = experiment: Induction of apoptosis in Noxa knockdown human THP-1 cells assessed as PARP cleavage at 20 uM measured after 24 hrs by […]; type: functional, cell-based
[1] = Half life in Sprague-Dawley rat at 5 mg/kg, iv measured upto 24 hrs by LC-MS/MS analysis; type: ADME, organism-based; settings: in vivo
[2] = Tmax in Sprague-Dawley rat at 5 mg/kg, iv measured upto 24 hrs by LC-MS/MS analysis; type: ADME, organism-based; settings: in vivo
[3] = Cmax in Sprague-Dawley rat at 5 mg/kg, iv measured upto 24 hrs by LC-MS/MS analysis; type: ADME, organism-based; settings: in vivo
[4] = AUC (0 to infinity) in Sprague-Dawley rat at 5 mg/kg, iv measured upto 24 hrs by LC-MS/MS analysis; type: ADME, organism-based; settings: in vivo
[5] = Half life in Sprague-Dawley rat at 20 mg/kg, ip measured upto 24 hrs by LC-MS/MS analysis; type: ADME, organism-based; settings: in vivo
[6] = Cmax in Sprague-Dawley rat at 20 mg/kg, ip measured upto 24 hrs by LC-MS/MS analysis; type: ADME, organism-based; settings: in vivo
[7] = AUC (0 to infinity) in Sprague-Dawley rat at 20 mg/kg, ip measured upto 24 hrs by LC-MS/MS analysis; type: ADME, organism-based; settings: in vivo
[8] = MRT (0 to t) in Sprague-Dawley rat at 20 mg/kg, ip measured upto 24 hrs by LC-MS/MS analysis; type: ADME, organism-based; settings: in vivo
[9] = biological target: Voltage-gated inwardly rectifying potassium channel KCNH2 (Homo sapiens, UniProt Q12809); experiment: Inhibition of hERG; type: toxicity
[10] = Cytotoxicity against rat H9c2 cells assessed as cell viability measured after 72 hrs by MTT assay; type: toxicity, cell-based
[11] = Cytotoxicity against human AC16 cells assessed as change in intracellular calcium level at 20 uM measured after 24 hrs by Fluo-4 AM based flow cytometry; type: toxicity, cell-based; settings: ac16 [human hybrid]
[12] = Toxicity in NOD SCID mouse assessed as change in body weight at 25 mg/kg, ip administered for 7 consecutive days; type: organism-based; settings: in vivo, 168 h, time 7 day
[13] = Toxicity in NOD SCID mouse assessed as change in heart tissue at 25 mg/kg, ip administered for 7 consecutive days by Hematoxylin-eosin (HE) staining based assay; type: organism-based; settings: in vivo, 168 h, time 7 day
[14] = Toxicity in NOD SCID mouse assessed as change in kidney tissue at 25 mg/kg, ip administered for 7 consecutive days by Hematoxylin-eosin (HE) staining based assay; type: organism-based; settings: in vivo, 168 h, time 7 day
HL-60 [15] = experiment: In vivo antitumor activity against human HL-60 cells xenografted in female NOD SCID mouse assessed as reduction in tumor volume at 80 mg/kg, ip once daily after 15 days of tumor inoculation treated for 12 days; type: functional, organism-based; settings: time 12.0 day
HL-60 [16] = experiment: In vivo antitumor activity against human HL-60 cells xenografted in female NOD SCID mouse assessed as reduction in tumor weight at 80 mg/kg, ip once daily after 15 days of tumor inoculation treated for 12 days; type: functional, organism-based; settings: time 12.0 day
[17] = Toxicity in NOD SCID mouse xenografted with human HL-60 cells assessed as change in body weight at 80 mg/kg, ip once daily after 15 days of tumor inoculation treated for 12 days; type: organism-based; settings: in vivo, 288 h, time 12 day
[18] = Toxicity in NOD SCID mouse xenografted with human HL-60 cells assessed as change in heart tissue at 80 mg/kg, ip once daily after 15 days of tumor inoculation treated for 12 days; type: organism-based; settings: in vivo, 288 h, time 12 day
[19] = Toxicity in NOD SCID mouse xenografted with human HL-60 cells assessed as change in liver tissue at 80 mg/kg, ip once daily after 15 days of tumor inoculation treated for 12 days; type: organism-based; settings: in vivo, 288 h, time 12 day
[20] = Toxicity in NOD SCID mouse xenografted with human HL-60 cells assessed as change in kidney tissue at 80 mg/kg, ip once daily after 15 days of tumor inoculation treated for 12 days; type: organism-based; settings: in vivo
HL-60 [21] = experiment: In vivo antitumor activity against human HL-60 cells xenografted in female NOD SCID mouse assessed as tumor growth inhibition at 40 mg/kg, ip once daily after 15 days of tumor inoculation treated for 12 days relative to control; type: functional; settings: read-out: TGI
[22] = Toxicity in NOD SCID mouse xenografted with human THP-1 cells assessed as change in spleen tissue at 40 to 80 mg/kg, ip once daily after 10 days of tumor inoculation treated for 14 days relative to control; type: organism-based; settings: in vivo, 336 h, dose 40-80 mg/kg, time 14 day
[23] = Toxicity in NOD SCID mouse xenografted with human THP-1 cells assessed as change in kidney tissue at 40 to 80 mg/kg, ip once daily after 10 days of tumor inoculation treated for 14 days relative to control; type: organism-based; settings: in vivo, 336 h, dose 40-80 mg/kg, time 14 day

Sequence of Voltage-gated inwardly rectifying potassium channel KCNH2 (Q12809 whole entry): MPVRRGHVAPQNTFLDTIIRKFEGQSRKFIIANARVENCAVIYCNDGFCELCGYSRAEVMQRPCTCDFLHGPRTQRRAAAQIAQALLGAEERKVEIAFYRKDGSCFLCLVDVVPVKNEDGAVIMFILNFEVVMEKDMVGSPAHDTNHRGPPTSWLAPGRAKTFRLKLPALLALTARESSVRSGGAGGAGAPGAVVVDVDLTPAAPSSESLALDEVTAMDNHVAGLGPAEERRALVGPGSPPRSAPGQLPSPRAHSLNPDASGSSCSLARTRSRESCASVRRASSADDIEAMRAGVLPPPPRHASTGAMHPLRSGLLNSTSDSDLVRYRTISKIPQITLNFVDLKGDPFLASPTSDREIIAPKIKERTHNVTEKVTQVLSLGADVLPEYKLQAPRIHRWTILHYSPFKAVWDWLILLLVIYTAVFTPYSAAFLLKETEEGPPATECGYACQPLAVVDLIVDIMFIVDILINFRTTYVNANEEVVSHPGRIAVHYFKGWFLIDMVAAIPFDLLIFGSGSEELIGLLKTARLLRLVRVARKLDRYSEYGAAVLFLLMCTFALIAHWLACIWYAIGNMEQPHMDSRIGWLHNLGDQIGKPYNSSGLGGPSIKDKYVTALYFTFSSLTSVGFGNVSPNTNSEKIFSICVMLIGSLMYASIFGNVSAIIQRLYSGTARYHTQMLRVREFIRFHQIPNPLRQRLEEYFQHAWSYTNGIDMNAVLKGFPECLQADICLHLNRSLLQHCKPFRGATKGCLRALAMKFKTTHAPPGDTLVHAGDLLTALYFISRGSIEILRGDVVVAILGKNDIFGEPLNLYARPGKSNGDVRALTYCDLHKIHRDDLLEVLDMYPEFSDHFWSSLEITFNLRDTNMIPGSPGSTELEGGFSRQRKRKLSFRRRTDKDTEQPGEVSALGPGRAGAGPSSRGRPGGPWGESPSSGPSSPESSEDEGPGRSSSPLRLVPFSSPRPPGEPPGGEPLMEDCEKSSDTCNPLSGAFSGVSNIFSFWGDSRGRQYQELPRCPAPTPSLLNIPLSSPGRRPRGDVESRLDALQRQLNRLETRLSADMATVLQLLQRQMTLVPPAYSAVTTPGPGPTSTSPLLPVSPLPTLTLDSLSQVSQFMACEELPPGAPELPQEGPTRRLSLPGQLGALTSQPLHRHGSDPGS

half-life [1]: 4.9 h
Tmax [2]: 4.98 min
Cmax [3]: 46500 ng/mL
AUC(0-inf) [4]: 18800 ng·h/mL
half-life [5]: 4.1 h
Cmax [6]: 6240 ng/mL
AUC(0-inf) [7]: 55800 ng·h/mL
MRT last at 24 h [8]: 6.51 h
Structure (SMILES): Cc1cc(OCCCc2c(C(=O)O)n(CCN3CCOCC3)c3c(-c4ccccc4Cn4cc(CCN(CCN5CCOCC5)S(=O)(=O)c5ccc(F)cc5)c5ccccc54)cccc23)cc(C)c1Cl
Activity (THP-1): inactive
IC50 [9]: > 50 µM
IC50 at 72 h [10]: 17.9 µM
Activity [11]: Non-Toxic
Activity [12]: Non-Toxic
Activity [13]: Non-Toxic
Activity [14]: Non-Toxic
Activity (HL-60 [15]): Active
Activity (HL-60 [16]): Active
Activity [17]: Non-Toxic
Activity [18]: Non-Toxic
Activity [19]: Non-Toxic
Activity [20]: Non-Toxic
inhibition in vivo at 40 mg/kg (HL-60 [21]): 46.1%
Activity [22]: Non-Toxic
Activity [23]: Non-Toxic
